In brackets after ≈: the same amount, converted by molar mass.
Experiments:
[1] = tested on: K562; test: Antiproliferative activity against human K562 cells assessed as reduction in cell viability incubated for 48 hrs by CytoX cell viability assay; format: functional, cell-based; settings: K562, 48 h
[2] = tested on: MCF7; test: Antiproliferative activity against human MCF7 cells assessed as reduction in cell viability incubated for 48 hrs by CytoX cell viability assay; format: functional, cell-based; settings: MCF7, 48 h
[3] = tested on: HeLa; test: Antiproliferative activity against human HeLa cells assessed as reduction in cell viability incubated for 48 hrs by CytoX cell viability assay; format: functional, cell-based
[4] = tested on: HCT-15; test: Antiproliferative activity against human HCT-15 cells assessed as reduction in cell viability incubated for 48 hrs by CytoX cell viability assay; format: functional, cell-based; settings: HCT-15, 48 h
[5] = tested on: DU-145; test: Antiproliferative activity against human DU-145 cells assessed as reduction in cell viability incubated for 48 hrs by CytoX cell viability assay; format: functional, cell-based; settings: DU-145, 48 h
[6] = tested on: HEp-2; test: Cytotoxicity against human HEp-2 cells assessed as inhibition of cell growth; format: functional; settings: read-out: ED50 (the source's name)
[7] = tested on: A2780; test: Cytotoxicity against human A2780 cells assessed as inhibition of cell growth incubated for 96 hrs by SRB assay; format: toxicity, cell-based; settings: A2780, 96 h
[8] = tested on: Hyalomma lusitanicum; test: Anti-insecticidal activity against Hyalomma lusitanicum Koch larvae assessed as inhibition of larval growth; format: functional; settings: for LC50: Hyalomma lusitanicum, read-out: LD50 (the source's name)
[9] = tested on: Plasmodium falciparum; test: Antimalarial activity against Sulfadoxine-sensitive Plasmodium falciparum FCR3; format: functional, organism-based
[10] = tested on: Plasmodium falciparum; test: Antimalarial activity against Sulfadoxine-sensitive Plasmodium falciparum D6; format: functional, organism-based
[11] = tested on: Plasmodium falciparum; test: Antimalarial activity against […] incubated for 48 hrs; format: functional, organism-based; settings: K1, 48 h
[12] = tested on: Plasmodium falciparum; test: Antimalarial activity against chloroquine-sensitive Plasmodium falciparum D10 incubated for 48 hrs; format: functional, organism-based; settings: D10, 48 h
[13] = tested on: Plasmodium falciparum; test: Antimalarial activity against Sulfadoxine-resistant Plasmodium falciparum W2; format: functional, organism-based
[14] = tested on: Plasmodium falciparum; test: Antimalarial activity against Sulfadoxine-sensitive Plasmodium falciparum HB3; format: functional, organism-based
[15] = tested on: Plasmodium falciparum; test: Antimalarial activity against Sulfadoxine-resistant Plasmodium falciparum 3D7; format: functional, organism-based
[16] = tested on: MCF7; test: Cytotoxicity against human MCF7 cells assessed as inhibition of cell growth incubated for 48 hrs by SRB assay; format: functional, cell-based; settings: MCF7, 48 h
[17] = tested on: PC-3; test: Cytotoxicity against human PC-3 cells assessed as inhibition of cell growth incubated for 48 hrs by SRB assay; format: functional, cell-based; settings: PC-3, 48 h
[18] = tested on: MDA-MB-231; test: Cytotoxicity against human MDA-MB-231 cells assessed as inhibition of cell growth incubated for 48 hrs by SRB assay; format: functional, cell-based; settings: MDA-MB-231, 48 h
[19] = tested on: SF-295; test: Antiproliferative activity against human SF-295 cells assessed as inhibition of cell growth incubated for 72 hrs by MTT assay; format: functional, cell-based; settings: SF-295, 72 h
[20] = tested on: Leishmania donovani; test: Antileishmanial activity against Leishmania donovani promastigotes; format: functional, organism-based
[21] = tested on: HL-60; test: Antiproliferative activity against human HL-60 cells assessed as inhibition of cell growth incubated for 72 hrs by MTT assay; format: functional, cell-based; settings: HL-60, 72 h
[22] = tested on: HCT-116; test: Antiproliferative activity against human HCT-116 cells assessed as inhibition of cell growth incubated for 72 hrs by MTT assay; format: functional, cell-based; settings: HCT-116, 72 h
[23] = tested on: OVCAR-8; test: Antiproliferative activity against human OVCAR-8 cells assessed as inhibition of cell growth incubated for 72 hrs by MTT assay; format: functional, cell-based; settings: OVCAR-8, 72 h
[24] = tested on: K562; test: Antiproliferative activity against human K562/C1000 cells assessed as inhibition of cell proliferation incubated for 4 days by MTT assay; format: functional, cell-based; settings: K562, 96 h
[25] = tested on: HeLa; test: Antiproliferative activity against human HeLa cells assessed as inhibition of cell proliferation incubated for 4 days by MTT assay; format: functional, cell-based; settings: 96 h
[26] = tested on: A2780; test: Antiproliferative activity against human A2780 cells assessed as inhibition of cell proliferation incubated for 4 days by MTT assay; format: functional, cell-based; settings: A2780, 96 h
[27] = tested on: HT-29; test: Antiproliferative activity against human HT-29 cells assessed as inhibition of cell proliferation incubated for 4 days by MTT assay; format: functional, cell-based; settings: HT-29, 96 h
[28] = tested on: MCF7; test: Antiproliferative activity against human MCF7 cells assessed as inhibition of cell proliferation incubated for 4 days by MTT assay; format: functional, cell-based; settings: MCF7, 96 h
[29] = tested on: NCI-H1299; test: Antiproliferative activity against human NCI-H1299 cells assessed as inhibition of cell proliferation incubated for 4 days by MTT assay; format: functional, cell-based; settings: NCI-H1299, 96 h
[30] = tested on: Malme-3M; test: Antiproliferative activity against human Malme-3M cells assessed as inhibition of cell proliferation incubated for 4 days by MTT assay; format: functional, cell-based; settings: 96 h
[31] = Induction of apoptosis in human multiple myeloma cell; format: functional, cell-based
[32] = tested on: MG-63; test: Antiproliferative activity against human MG-63 cells assessed as inhibition of cell growth by MTT assay; format: functional, cell-based
[33] = tested on: MG-63; test: Antiproliferative activity against human MG-63 cells assessed as reduction in cell viability by SRB assay; format: functional, cell-based
[34] = molecular target: T1, Aromatase (Homo sapiens, UniProt P11511); test: Inhibition of aromatase in human MCF-7aro cells using [1beta-3H] androstenedione as substrate at 10 uM incubated for 1 hrs relative to control; format: cell-based
T1 sequence (P11511 whole entry): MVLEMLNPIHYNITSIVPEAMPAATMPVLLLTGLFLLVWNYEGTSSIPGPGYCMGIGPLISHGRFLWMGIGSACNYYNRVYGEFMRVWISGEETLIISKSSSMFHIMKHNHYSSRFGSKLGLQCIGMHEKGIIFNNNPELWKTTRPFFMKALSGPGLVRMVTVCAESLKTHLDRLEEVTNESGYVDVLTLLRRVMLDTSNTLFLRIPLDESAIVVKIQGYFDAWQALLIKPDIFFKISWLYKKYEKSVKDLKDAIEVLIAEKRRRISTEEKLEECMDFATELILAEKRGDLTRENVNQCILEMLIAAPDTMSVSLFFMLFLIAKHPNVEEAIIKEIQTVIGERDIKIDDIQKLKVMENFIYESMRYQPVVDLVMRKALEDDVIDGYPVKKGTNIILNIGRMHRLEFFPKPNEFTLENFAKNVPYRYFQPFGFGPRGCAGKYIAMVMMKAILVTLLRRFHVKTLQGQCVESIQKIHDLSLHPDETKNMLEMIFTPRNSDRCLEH

[35] = molecular target: T1, Aromatase; test: Inhibition of aromatase in human MCF-7aro cells using [1beta-3H] androstenedione as substrate incubated for 1 hrs; format: cell-based
[36] = molecular target: T1, Aromatase; test: Inhibition of aromatase in disrupted human MCF-7aro cells using [1beta-3H] androstenedione as substrate incubated for 1 hrs in the presence of NADPH
[37] = tested on: NCI-H522; test: Cytotoxicity against human NCI-H522 cells assessed as inhibition of cell growth incubated for 3 days; format: functional, cell-based; settings: NCI-H522, 72 h
[38] = Cytotoxicity against human RPMI-8226/Dox40 cells assessed as inhibition of cell growth incubated for 3 days; format: functional, cell-based; settings: RPMI-8226, 72 h

## Cc1cc(=O)c2c(OC[C@@H]3CO3)cc(OC[C@H]3CO3)cc2o1
[1]
  IC50: 1.49 µM
[2]
  IC50: 13.9 µM
[3]
  IC50: 11 µM
[4]
  IC50: 12.1 µM
[5]
  IC50: 20.4 µM

## C[C@@H]1C[C@H]2OC(=O)C(CN(C)C)[C@H]2[C@H](O)[C@]2(C)C(=O)C3OC3[C@@H]12 (stereo partly drawn)
[6]
  EC50: 0.11 mg/L (≈ 0.34 µM)

## CC1=CC[C@]23O[C@@]2(C)CC[C@@H]2[C@H](OC(=O)[C@H]2CN2CCNCC2)[C@@H]13
[7]
  IC50: 3.75 µM

## CC(C)=C1C/C=C(\C)CC/C=C(\C)CC1=O
[8]
  LD90: 3.13 mg/mL
  LC50: 1080 mg/L (≈ 4950 µM)

## Fc1ccc([C@]23CC[C@](c4ccc(F)cc4)(OO2)[C@H]2O[C@H]23)cc1
[9]
  IC50: 0.01 µM
[10]
  IC50: 0.01 µM
[11]
  IC50: 0.08 µM
[12]
  IC50: 0.08 µM
[13]
  IC50: > 10 µM
[14]
  IC50: 0.01 µM
[15]
  IC50: > 10 µM

## C[C@]12CC[C@H]3[C@@H](C=CC4=CC(=O)[C@@H]5O[C@@H]5[C@@]43C)[C@@H]1CC(=O)OC2
[16]
  IC50: > 100 µM
[17]
  IC50: > 100 µM
[18]
  IC50: 16.4 µM

## C=C(C)[C@H]1CCC2(C=O)OC2C1 (stereo partly drawn)
[19]
  IC50: 22 µM
[20]
  IC50: 64.6 mg/L (≈ 389 µM)
[21]
  IC50: 9.7 µM
[22]
  IC50: 16.1 µM
[23]
  IC50: 23.6 µM

## CC1(C)NC(=O)[C@@H](CCCCCC(=O)[C@@H]2CO2)NC(=O)CC2CCCN2C(=O)[C@@H](Cc2ccccc2)NC1=O (stereo partly drawn)
[24]
  IC50: 0.00076 µM
[25]
  IC50: 0.014 µM
[26]
  IC50: 0.00036 µM
[27]
  IC50: 0.0043 µM
[28]
  IC50: 0.0053 µM
[29]
  IC50: 0.004 µM
[30]
  IC50: 0.045 µM

## Cc1cc(=O)c2c(OC[C@@H]3CO3)cc(OC[C@@H]3CO3)cc2o1
[1]
  IC50: 19.5 µM
[2]
  IC50: 46.1 µM
[3]
  IC50: 21.7 µM
[4]
  IC50: 39.5 µM
[5]
  IC50: 24.5 µM

## Cc1cc(=O)c2c(OC[C@H]3CO3)cc(OC[C@H]3CO3)cc2o1
[1]
  IC50: 7.86 µM
[2]
  IC50: 220 µM
[3]
  IC50: 11.4 µM
[4]
  IC50: 229 µM
[5]
  IC50: 15.6 µM

## Cc1cc(=O)c2c(O)cc(OCC3CO3)cc2o1 (stereo not drawn)
[1]
  IC50: 143 µM
[2]
  IC50: 13.6 µM
[3]
  IC50: 17.7 µM
[4]
  IC50: 18.3 µM
[5]
  IC50: 20.9 µM

## CC(C)=C1C/C=C(\C)CCCC2(C)OC2C1=O (stereo not drawn)
[8]
  LD90: 2.98 mg/mL
  LC50: 2320 mg/L (≈ 9900 µM)

## COc1ccc2c(c1)C(=O)C1OC1(C)C2=O (stereo not drawn)
[31]
  EC50: 3.5 µM

## CC(C)[C@@]12CC[C@@](C)(OO1)[C@@H]1O[C@@H]12
[9]
  IC50: 0.01 µM
[10]
  IC50: 0.01 µM
[11]
  IC50: 0.08 µM
[12]
  IC50: 0.08 µM
[13]
  IC50: > 10 µM
[14]
  IC50: 0.01 µM
[15]
  IC50: > 10 µM

## Cc1cc(=O)c2c(O)cc(OC[C@@H]3CO3)cc2o1
[1]
  IC50: 8.03 µM
[2]
  IC50: 36.2 µM
[3]
  IC50: 11.9 µM
[4]
  IC50: 17.5 µM
[5]
  IC50: 7.58 µM

## Cc1cc(=O)c2c(OCC3CO3)cc(OCC3CO3)cc2o1 (stereo not drawn)
[1]
  IC50: 6.3 µM
[2]
  IC50: 6.5 µM
[3]
  IC50: 5.4 µM
[4]
  IC50: 12.1 µM
[5]
  IC50: 7.3 µM

## C[C@@H]1CC[C@@H]([C@@]2(C)CO2)[C@H](OCc2ccccc2)C1
[32]
  IC50: 100 µM
[33]
  IC50: 100 µM

## C[C@]12CC[C@H]3[C@@H](CC[C@@]45O[C@@H]4CCC[C@]35C)[C@@H]1CCC2=O
[34]
  inhibition at 10 µM: 52.2%
[35]
  IC50: 8.5 µM
[36]
  IC50: 1.2 µM

## C[C@]1([C@H]2Cc3ccc4c(c3O2)-n2cc(C(=O)O)c(=O)c3cc(F)c(N5CC[C@H](N)C5)c(c32)O4)CO1
[37]
  IC50: 0.07 µM
[38]
  IC50: 0.05 µM

— ChEMBL document CHEMBL5233251, “Epoxide containing molecules: A good or a bad drug design approach” (Eur J Med Chem, 2020)
